Tested on: RA patients
Assay: CRP analysis (immunoturbidimetric assay), Study 1
Assay type: in vivo, human
Method: Double-blind, placebo-controlled add on study in subjects with moderately to severely active RA who have an inadequate response to methotrexate (MTX) (oral or parenteral).
Compound 1 (dosed as a [Compound 1:HCl:3H2O]) is dosed for twelve weeks once daily (q.d.) (50 mg, 100 mg or 200 mg) or twice daily (b.i.d.) (25 mg, 50 mg or 100 mg); or placebo.
At Week 12, the subjects on placebo who have not achieved 20% improvement in swollen joint count (SJC66) and tender joint count (TJC68) are re-randomized automatically to receive Compound 1 (dosed as a [Compound 1:HCl:3H2O]) either at 100 mg q.d. or 50 mg b.i.d. doses in a blinded fashion; subjects on 50 mg q.d. who have not achieved 20% improvement in SJC66 and TJC68 will be assigned to 100 mg q.d. and subjects on 25 mg b.i.d. that have not achieved a 20% improvement in SJC66 and TJC68 will be assigned to 50 mg b.i.d. Subjects who switch treatment at week 12 are handled as if they discontinued at week 12 for the purpose of statistical analysis, whereas subjects in the other groups will maintain their randomized treatment until Week 24.
The determination of CRP is made using Immunoturbidimetric assay for the in vitro quantitative determination of CRP in human serum and plasma on Roche/Hitachi cobas c systems, wherein human CRP agglutinates with latex particles coated with monoclonal anti-CRP antibodies. The aggregates are determined turbidimetrically (Eda et al., 1998; Price et al., 1987).
Human serum and plasma samples [CRP] determination was done on a Roche/Hitachi Cobas c 301 c 501/502 system which automatically calculate the analyte concentration of each sample. Samples containing precipitates are centrifuged before performing the assay.
The Hommel-corrected p-value for the pairwise comparisons of each group with placebo is shown.
The number of subjects (N) provided in each groups corresponds to the number of patients starting the study in each group, and the ACR data reported below corresponds to the responding patients continuing for the entire 24 weeks on their initial treatment course.

## O=C(Nc1nc2cccc(-c3ccc(CN4CCS(=O)(=O)CC4)cc3)n2n1)C1CC1 [Compound 1, cyclopropanecarboxylic acid {5-[4-(1,1-dioxo-thiomorpholin-4-ylmethyl)-phenyl]-[1,2,4]triazolo[1,5-a]pyridin-2yl}-amide]
50 mg q.d., week 1
  CRP mean CFB (LOCF) - 24 weeks results: -7.95 mg/L
50 mg q.d., week 2
  CRP mean CFB (LOCF) - 24 weeks results: -8.23 mg/L
50 mg q.d., week 4
  CRP mean CFB (LOCF) - 24 weeks results: -10.18 mg/L
50 mg q.d., week 8
  CRP mean CFB (LOCF) - CRP variation: -12.02 mg/L
50 mg q.d., week 12
  CRP mean CFB (LOCF) - 24 weeks results: -13.15 mg/L
100 mg q.d., week 1
  CRP mean CFB (LOCF) - 24 weeks results: -11.02 mg/L
100 mg q.d., week 2
  CRP mean CFB (LOCF) - 24 weeks results: -12.94 mg/L
100 mg q.d., week 4
  CRP mean CFB (LOCF) - 24 weeks results: -13.18 mg/L
100 mg q.d., week 8
  CRP mean CFB (LOCF) - 24 weeks results: -12.48 mg/L
100 mg q.d., week 12
  CRP mean CFB (LOCF) - 24 weeks results: -13.57 mg/L
200 mg q.d., week 1
  CRP mean CFB (LOCF) - 24 weeks results: -17.06 mg/L
200 mg q.d., week 2
  CRP mean CFB (LOCF) - 24 weeks results: -17.51 mg/L
200 mg q.d., week 4
  CRP mean CFB (LOCF) - 24 weeks results: -17.94 mg/L
200 mg q.d., week 8
  CRP mean CFB (LOCF) - 24 weeks results: -17.22 mg/L
200 mg q.d., week 12
  CRP mean CFB (LOCF) - 24 weeks results: -17.24 mg/L
2 × 25 mg b.i.d., Week 1
  CRP mean CFB (LOCF) - 24 weeks results: -8.47 mg/L
2 × 25 mg b.i.d., Week 2
  CRP mean CFB (LOCF) - 24 weeks results: -10.06 mg/L
2 × 25 mg b.i.d., Week 4
  CRP mean CFB (LOCF) - 24 weeks results: -7.72 mg/L
2 × 25 mg b.i.d., Week 8
  CRP mean CFB (LOCF) - 24 weeks results: -10.94 mg/L
2 × 25 mg b.i.d., Week 12
  CRP mean CFB (LOCF) - 24 weeks results: -10.26 mg/L
2 × 25 mg b.i.d., Week 20
  CRP mean CFB (LOCF) - 24 weeks results: -12.20 mg/L
2 × 50 mg b.i.d., Week 1
  CRP mean CFB (LOCF) - 24 weeks results: -10.08 mg/L
2 × 50 mg b.i.d., Week 2
  CRP mean CFB (LOCF) - 24 weeks results: -11.03 mg/L
2 × 50 mg b.i.d., Week 4
  CRP mean CFB (LOCF) - 24 weeks results: -13.28 mg/L
2 × 50 mg b.i.d., Week 8
  CRP mean CFB (LOCF) - 24 weeks results: -13.25 mg/L
2 × 50 mg b.i.d., Week 12
  CRP mean CFB (LOCF) - 24 weeks results: -12.97 mg/L
2 × 100 mg b.i.d., Week 1
  CRP mean CFB (LOCF) - 24 weeks results: -17.39 mg/L
2 × 100 mg b.i.d., Week 2
  CRP mean CFB (LOCF) - 24 weeks results: -19.69 mg/L
2 × 100 mg b.i.d., Week 4
  CRP mean CFB (LOCF) - 24 weeks results: -20.64 mg/L
2 × 100 mg b.i.d., Week 8
  CRP mean CFB (LOCF) - 24 weeks results: -21.32 mg/L
2 × 100 mg b.i.d., Week 12
  CRP mean CFB (LOCF) - 24 weeks results: -20.54 mg/L
2 × 100 mg b.i.d., Week 20
  CRP mean CFB (LOCF) - 24 weeks results: -20.80 mg/L
